These results are taken from patent US20040171045A1, “Assay for predicting cell activity” (IsoTis N.V., priority 2001, published 2004).

The subject of the test is human bone marrow stromal cells (HBMSC). Description: Temporal expression of ALP in HBMSC cultures by flow cytometry, (+) dex versus control medium. The test is classed as cell-based. Conditions: 10^−8 M dex, average of day 3 to day 9. The method, then: The expression of ALP was evaluated by flow cytometry at several culture periods (from day 1 to day 9, three to four measurements were performed for each culture). Briefly, after trypsinisation, cells were washed twice in wash buffer and blocked against non-specific binding (see above). Cells (approx. 0.1-0.3E6/staining) were then resuspended in blocking buffer containing: (a) control mouse anti-human IgG2a (1:5 dilution) and (b) ALP monoclonal antibody (1:10 dilution). After incubation on ice for 45 minutes and washing, antibody reactivity was detected by suspending the cells with blocking buffer containing goat anti-mouse IgGγ-chain-specific-FITC (1:5 dilution). Cells were incubated on ice and in the dark for 30 minutes. After washing, the cells were resuspended in 200 μl of FACS-flow/staining and analyzed using a FACS Calibur apparatus (Becton Dickinson Immunocytometry systems). For each measurement 10,000 events were collected.
In general terms: Flow cytometry measures light scatter and fluorescence of single cells or particles in a stream.

Consider `C[C@@H]1C[C@H]2[C@@H]3CCC4=CC(=O)C=C[C@]4(C)[C@@]3(F)[C@@H](O)C[C@]2(C)[C@@]1(O)C(=O)CO` [dex, dexamethasone], for which the “Ratio between the fraction of ALP+ cells in the (+) dex and control conditions” value (shortened to “Ratio between the fraction of ALP+ cells”) reads like this: (Donor 1 (U00079)) 1.53; (Donor 2 (U00084)) 1.53; (Donor 3 (U00169)) 1.40; (Donor 4 (U00182-2)) 2.71; (Donor 5 (U00212)) 2.53; (Donor 6 (U00230)) 1.52. Moreover, the “Ratio between the fraction of ALP+ cells” value turned out to be 1.25 (Donor 7 (U00106)); 3.72 (Donor 8 (U00173)); 1.56 (Donor 9 (U00174)); 2.40 (Donor 11 (U00179)); 2.56 (Donor 12 (U00090)); 1.55 (Donor 13 (U00180)). In addition, for the setting “Donor 14 (U00091)”, the “Ratio between the fraction of ALP+ cells” value was 1.80.
